Assay results: paper PMC4949556, “Subtle Structural Differences Trigger Inhibitory Activity of Propafenone Analogues at the Two Polyspecific ABC Transporters: P‐Glycoprotein (P‐gp) and Breast Cancer Resistance Protein (BCRP)” (Chemmedchem, 2016)
Entries after “also recorded” stand apart in the source; their conditions may differ.

Legend:
Format in all cases: cell-based
BCRP = biological target: T1, BCRP (Homo sapiens, UniProt Q9UNQ0); assay: BCRP inhibition: steady-state mitoxantrone accumulation in BCRP-expressing PLB985 cells (flow cytometry); details: for IC50: BCRP IC50, mitoxantrone 7 μM, PLB985 BCRP cells, mean±SD, at least n=3 (11 a n=2); for Hill coefficient BCRP: Hill coefficient of IC50 measurement, mean ± SD of n experiments; for in vitro classification as BCRP inhibitor: IC50 below 10 μM considered active; for inhibition at 20 min, 100 µM: human, PLB985 cells stably expressing BCRP, pH 7.4, probe mitoxantrone (7 µM), 100µM compound, compared to positive control Ko143 (1µM) set as 100%, mean of 3 independent experiments, read-out: In vitro activity (% inhibition), BCRP, Table S1
T1 construct: expressed in transfected cells; host or cells: PLB985 human myeloid leukemia cells stably expressing BCRP (gift of B. Sarkadi and K. Nemet, Budapest)
T1 sequence (Q9UNQ0 whole entry): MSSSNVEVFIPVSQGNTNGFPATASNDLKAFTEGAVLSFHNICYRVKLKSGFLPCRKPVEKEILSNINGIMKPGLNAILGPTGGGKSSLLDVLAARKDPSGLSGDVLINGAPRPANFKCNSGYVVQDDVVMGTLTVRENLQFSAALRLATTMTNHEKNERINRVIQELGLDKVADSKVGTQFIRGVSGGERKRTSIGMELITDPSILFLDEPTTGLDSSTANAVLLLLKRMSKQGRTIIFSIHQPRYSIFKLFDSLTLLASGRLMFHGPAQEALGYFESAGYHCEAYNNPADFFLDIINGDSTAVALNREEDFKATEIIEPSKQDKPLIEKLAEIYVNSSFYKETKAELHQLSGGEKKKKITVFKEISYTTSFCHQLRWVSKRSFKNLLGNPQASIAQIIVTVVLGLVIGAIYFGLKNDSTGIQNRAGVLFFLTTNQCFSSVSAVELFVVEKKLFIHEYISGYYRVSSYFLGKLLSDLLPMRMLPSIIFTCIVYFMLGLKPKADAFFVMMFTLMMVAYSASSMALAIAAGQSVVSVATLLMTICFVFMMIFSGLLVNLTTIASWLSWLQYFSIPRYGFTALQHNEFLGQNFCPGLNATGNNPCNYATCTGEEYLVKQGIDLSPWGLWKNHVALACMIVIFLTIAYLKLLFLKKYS
Procedure: (§1) P‐gp and BCRP inhibitory activity was assessed by implementing an intracellular accumulation assay of daunorubicin or mitoxantrone in cells overexpressing P‐gp or BCRP, respectively. In a first run, the effect of compounds 5, 6, 10, 11, and 16 (Figure 2) at 100 μM final concentration was tested (Figure 3). All compounds showing an inhibitory effect of more than 50 % compared with full inhibition by the known inhibitors of P‐gp (verapamil) and BCRP (Ko143) were further processed, and IC50 values were determined (IC50 curves and Hill coefficients are available in Figure S1 and Table S3 in the Supporting Information). […] For P‐gp, nine compounds were classified as inhibitors (5 a, 5 b, 6 a, 10 a, 10 b, 11 b, 16 a, 16 b, 16 c).
(§2) Cell culture: The human myeloid leukemia PLB985 parental and stably expressing BCRP cell lines31 were kindly provided by B. Sarkadi (Institute of Enzymology, Research Centre for Natural Sciences, Budapest, Hungary) and K. Nemet (Creative Cell Ltd., Budapest, Hungary). Both cell lines were cultured in RPMI 1640 supplemented with 10 % FBS and 100 IU mL^−1 of penicillin and streptomycin. The human T‐lymphoblast cell line CCRF VCR1000, overexpressing P‐gp, was obtained by stepwise selection of CCRF‐CEM in vincristine‐containing medium32 and was kindly provided by V. Gekeler (Altana‐Pharma formerly Byk‐Gulden, Konstanz, Germany). CCRF VCR1000 cells were cultured in RPMI 1640 medium containing 20 % FBS and were treated regularly with vincristine (1 μg mL^−1) for about 72 h, followed by centrifugation (300 g, 5 min, RT) and resuspension in normal culture medium. All cell lines were maintained at 37 °C in an atmosphere containing 5 % CO2 with 95 % relative humidity.
(§3) Steady‐state accumulation experiments: For BCRP and P‐gp inhibition studies, the steady‐state accumulation of mitoxantrone (7 μM) and daunorubicin (3 μM), respectively, was performed as previously described.33 Briefly, cells were harvested, pelleted (300 g, 5 min, 4 °C), diluted to a concentration of 12×10^6 cells mL^−1 in HPMI (10 mM Hepes, 120 mM NaCl, 5 mM KCl, 0.4 mM MgCl2, 0.04 mM CaCl2, 10 mM glucose, 10 mM NaHCO3, 5 mM Na2HPO4, pH 7.4 with NaOH) and kept on ice for further processing. For each data point, the cell suspension (25 μL) was preincubated for 5 min at 37 °C with 2 % DMSO (25 μL) in HPMI alone (DMSO control) or containing different concentrations of test compound solutions. Thereafter, cells were preloaded with daunorubicin (50 μL) or mitoxantrone (50 μL) for 30 or 20 min at 37 °C, respectively, to reach a final concentration of 3 or 7 μM, respectively. […] Preloading was stopped by chilling cells on ice for 5 min followed by the addition of 400 μL ice‐cold PBS. Cells were pelleted (300 g, 5 min, 4 °C), the supernatant was discarded, and the cell pellet was resuspended in ice‐cold PBS (150 μL). Until measurement, cells were kept on ice and in the dark. Immediately before cell fluorescence measurement by flow cytometry (BD Accuri C6 and BD FACSCalibur, Becton Dickinson, San Jose, CA, USA; MACSQuant, MiltenyiBiotec GmbH, BergischGladbach, Germany), 50 μL of 4′,6‐diamidin‐2‐phenylindole solution (DAPI, 4 μg mL^−1 in PBS) was added to gate out dead cells. 100 μM verapamil and 1 μM Ko143 were used as positive controls for P‐gp and BCRP inhibition, respectively. […]

P-gp = biological target: T2, P-gp (Homo sapiens, UniProt P08183); assay: P-gp inhibition: steady-state daunorubicin accumulation in P-gp-overexpressing CCRF VCR1000 cells (flow cytometry); details: for Hill coefficient P-gp: Hill coefficient of IC50 measurement, mean ± SD of n experiments; for in vitro classification as P-gp inhibitor: IC50 below 10 μM considered active; for IC50: daunorubicin 3 μM, CCRF VCR1000 cells, mean±SD, at least n=3; for fold higher IC50 value for BCRP than for P-gp: ratio IC50 BCRP / IC50 P-gp; for inhibition at 30 min, 100 µM: human, CCRF VCR1000 cells overexpressing P-gp, pH 7.4, probe daunorubicin (3 µM), 100µM compound, compared to positive control verapamil (100µM) set as 100%, mean of 3 independent experiments, read-out: In vitro activity (% inhibition), P-gp, Table S2
T2 construct: was obtained by stepwise selection of CCRF‐CEM in vincristine‐containing medium; endogenous in cells; host or cells: CCRF VCR1000 (vincristine-selected subline of CCRF-CEM human T-lymphoblasts; gift of V. Gekeler)
T2 sequence (P08183 whole entry): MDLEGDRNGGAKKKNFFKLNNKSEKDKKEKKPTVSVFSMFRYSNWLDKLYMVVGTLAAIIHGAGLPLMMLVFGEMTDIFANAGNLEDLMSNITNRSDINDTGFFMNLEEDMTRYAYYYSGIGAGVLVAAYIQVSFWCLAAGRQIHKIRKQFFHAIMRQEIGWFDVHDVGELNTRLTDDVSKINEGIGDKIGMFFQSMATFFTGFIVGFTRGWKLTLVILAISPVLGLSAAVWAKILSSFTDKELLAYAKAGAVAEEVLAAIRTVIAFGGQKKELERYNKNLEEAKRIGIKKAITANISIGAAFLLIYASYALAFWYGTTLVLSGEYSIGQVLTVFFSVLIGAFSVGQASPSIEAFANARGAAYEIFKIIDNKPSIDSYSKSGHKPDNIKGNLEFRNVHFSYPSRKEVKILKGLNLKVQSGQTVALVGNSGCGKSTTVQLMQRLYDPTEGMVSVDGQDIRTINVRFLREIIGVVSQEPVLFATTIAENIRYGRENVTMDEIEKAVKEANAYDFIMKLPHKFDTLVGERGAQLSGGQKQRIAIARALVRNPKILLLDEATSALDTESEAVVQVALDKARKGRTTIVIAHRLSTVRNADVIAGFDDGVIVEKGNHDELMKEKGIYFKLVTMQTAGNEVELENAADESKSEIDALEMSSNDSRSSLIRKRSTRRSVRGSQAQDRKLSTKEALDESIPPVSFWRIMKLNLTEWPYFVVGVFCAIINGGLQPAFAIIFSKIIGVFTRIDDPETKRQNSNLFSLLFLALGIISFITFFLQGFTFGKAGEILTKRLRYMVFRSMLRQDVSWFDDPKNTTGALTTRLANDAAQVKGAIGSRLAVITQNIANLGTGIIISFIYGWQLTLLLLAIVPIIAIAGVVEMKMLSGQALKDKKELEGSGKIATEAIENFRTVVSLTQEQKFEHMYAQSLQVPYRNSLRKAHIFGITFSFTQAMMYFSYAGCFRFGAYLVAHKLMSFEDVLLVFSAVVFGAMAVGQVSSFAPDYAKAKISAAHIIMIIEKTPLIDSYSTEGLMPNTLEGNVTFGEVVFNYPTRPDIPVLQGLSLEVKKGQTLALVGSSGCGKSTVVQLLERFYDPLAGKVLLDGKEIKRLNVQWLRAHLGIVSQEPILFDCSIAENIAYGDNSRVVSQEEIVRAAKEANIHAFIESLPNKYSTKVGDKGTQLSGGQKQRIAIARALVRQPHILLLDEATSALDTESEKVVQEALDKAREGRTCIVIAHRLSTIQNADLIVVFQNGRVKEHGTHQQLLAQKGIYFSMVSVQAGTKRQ
Procedure: as §1, §2, §3

P-gp / BCRP = biological target: T3, P-gp / BCRP (Homo sapiens, UniProt Q9UNQ0); assay: BCRP inhibition: steady-state mitoxantrone accumulation in BCRP-expressing PLB985 cells (flow cytometry); details: human, pH 7.4, probe daunorubicin (3 µM) for P-gp; mitoxantrone (7 µM) for BCRP; IC50 P-gp / IC50 BCRP; read-out: selectivity index (SI) P-gp/BCRP
T3 construct: expressed in transfected cells; host or cells: PLB985 human myeloid leukemia cells stably expressing BCRP (gift of B. Sarkadi and K. Nemet, Budapest)
T3 sequence (Q9UNQ0 whole entry): as the sequence (Q9UNQ0 whole entry) above
Procedure: as §1, §2, §3

Row | Structure (SMILES) | IC50 (BCRP) | Hill coefficient BCRP (BCRP) | in vitro classification as BCRP inhibitor (BCRP) | Hill coefficient P-gp (P-gp) | in vitro classification as P-gp inhibitor (P-gp) | IC50 (P-gp) | fold higher IC50 value for BCRP than for P-gp (P-gp) | inhibition at 20 min, 100 µM (BCRP) | inhibition at 30 min, 100 µM (P-gp) | fold lower IC50 value for BCRP than for P-gp (BCRP; ratio IC50 P-gp / IC50 BCRP) | selectivity ratio (P-gp / BCRP)
1 | COc1ccc(C(=O)CCc2ccccc2)c(OCCNC(=O)C2CCCN2)c1 (stereo not shown) [Compound 10 b] | 2.9 ± 0.5 µM | 1.0±0.1 | inhibitors | 1.1±0.1 | inhibitors | 1000 ± 200 nM | more than 2.6 fold | – | – | – | –
2 | CC(C)NCC(O)COc1ccccc1C(=O)CCc1ccccc1 (stereo not shown) [Compound 16 a, 1‐(2‐(2‐Hydroxy‐3‐(isopropylamino)propoxy)phenyl)‐3‐phenyl‐propan‐1‐one] | – | – | – | 0.9±0.1 | inhibitors | 300 nM | more than fivefold | 53% | – | – | –
3 | CC(=O)c1ccccc1OCC(O)CN1CC(=O)N2CCCC2C1=O (stereo not shown) [Compound 6 c, 2‐(3‐(2‐Acetylphenoxy)‐2‐hydroxypropyl)hexahydropyrrolo[1,2‐a]‐pyrazine‐1,4‐dione] | – | – | noninhibitors | – | noninhibitors | – | – | 33% | 4% | – | –
4 | COc1ccc(C(=O)CCc2ccccc2)c(OCCN2CC(=O)N3CCCC3C2=O)c1 (stereo not shown) [Compound 11 b, 2‐(2‐(5‐Methoxy‐2‐(3‐phenylpropanoyl)phenoxy)ethyl)‐hexahydropyrrolo[1,2‐a]pyrazine‐1,4‐dione] | 2.3 µM | 1.1±0.2 | inhibitors | 1.5±0.1 | inhibitors | 6200 ± 400 nM | – | – | – | 2.7 fold | 2.7
5 | CC(NCC(O)COc1ccccc1C(=O)CCc1ccccc1)C(F)F (stereo not shown) [Compound 16 c, 1‐(2‐(3‐((1,1‐Difluoropropan‐2‐yl)amino)‐2‐hydroxypropoxy)phenyl)‐3‐phenylpropan‐1‐one] | 4.9 ± 1.1 µM | 1.0±0.2 | inhibitors | 1.5±0.1 | inhibitors | 900 ± 200 nM | more than fivefold | – | – | – | –
6 | O=C(CCc1ccccc1)c1ccccc1OCCNC(=O)C1CCCN1 (stereo not shown) [Compound 10 a, N ‐(2‐(2‐(3‐phenylpropanoyl)phenoxy)ethyl)pyrrolidine‐2‐carboxamide] | 3.3 ± 0.6 µM | 1.3±0.2 | inhibitors | 1.6±0.2 | inhibitors | 1300 ± 100 nM | more than 2.6 fold | – | – | – | –
7 | COc1ccc(C(=O)CCc2ccccc2)c(OCC(O)CNC(=O)C2CCCN2)c1 (stereo not shown) [Compound 5 b, N‐(2‐hydroxy‐3‐(5‐methoxy‐2‐(3‐phenylpropanoyl)phenoxy)propyl)‐pyrrolidine‐2‐carboxamide] | 3.1 ± 0.5 µM | 1.4±0.1 | inhibitors | 1.3±0.2 | inhibitors | 2200 ± 600 nM | 1.4 fold | – | – | – | –
8 | CC(=O)c1ccccc1OCC(O)CNC(=O)C1CCCN1 (stereo not shown) [Compound 5 c, N ‐(3‐(2‐acetylphenoxy)‐2‐hydroxypropyl)pyrrolidine‐2‐carboxamide] | – | – | noninhibitors | 1.9±0.2 | noninhibitors | 58700 ± 9200 nM | – | 20% | – | – | –
9 | CC(CF)NCC(O)COc1ccccc1C(=O)CCc1ccccc1 (stereo not shown) [Compound 16 b, 1‐(2‐(3‐((1‐Fluoropropan‐2‐yl)amino)‐2‐hydroxypropoxy)phenyl)‐3‐phenylpropan‐1‐one] | 5.5 ± 0.9 µM | 1.6±0.2 | inhibitors | 1.3±0.2 | inhibitors | 500 ± 100 nM | more than fivefold | – | – | – | –
10 | CC(=O)c1ccccc1OCCN1CC(=O)N2CCCC2C1=O (stereo not shown) [Compound 11 c, 2‐(2‐(2‐Acetylphenoxy)ethyl)hexahydropyrrolo[1,2‐a]pyrazine‐1,4‐dione] | – | – | noninhibitors | – | noninhibitors | – | – | 37% | 8% | – | –
11 | O=C(CCc1ccccc1)c1ccccc1OCCN1CC(=O)N2CCCC2C1=O (stereo not shown) [Compound 11 a, 2‐(2‐(2‐(3‐Phenylpropanoyl)phenoxy)ethyl)hexahydropyrrolo[1,2‐a]‐pyrazine‐1,4‐dione] | 21.5 ± 2.9 µM | 1.0±0.0 | weak inhibitor | 1.8±0.4 | borderline inhibitory activity; also recorded: borderline inhibitor | 13900 ± 1500 nM | 1.5 fold | – | – | – | –
12 | CC(=O)c1ccccc1OCCNC(=O)C1CCCN1 (stereo not shown) [Compound 10 c, N ‐(2‐(2‐acetylphenoxy)ethyl)pyrrolidine‐2‐carboxamide] | – | – | noninhibitors | 2.2±0.4 | noninhibitors | 34800 ± 1800 nM | – | 24% | – | – | –
